Reference: PubChem BioAssay AID256 (DTP/NCI, 2004)
Values joined by “and” are separate entries in the source; they are usually repeats but may differ in a detail not shown here. Identical values can stand only once. Inconclusive results and toxic doses are left out. How the source made its calls: active means survival T/C of 150% or more; inactive means T/C below 125% in these data.

System: CD2F1 mice, L1210 leukemia ip, survival T/C
Assay: NCI In Vivo Anticancer Drug Screen. Data for tumor model L1210 Leukemia (intraperitoneal) in CD2F1 (CDF1) mice
Conditions: higher = longer survival
In short: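 Each value reflects a quotient of treated over vehicle control outcomes in mice with a transplanted tumor.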

[1] = endpoint: mean survival time, dose: 100.0 mg/kg/injection, schedule: Q01DX009 (ip), vehicle: saline with Tween-80
[2] = endpoint: mean survival time, dose: 100.0 mg/kg/injection, schedule: Q04DX003 (ip), vehicle: saline with Tween-80
[3] = endpoint: mean survival time, dose: 200.0 mg/kg/injection, schedule: Q01DX009 (ip), vehicle: saline with Tween-80
[4] = endpoint: mean survival time, dose: 200.0 mg/kg/injection, schedule: Q04DX003 (ip), vehicle: saline with Tween-80
[5] = endpoint: mean survival time, dose: 400.0 mg/kg/injection, schedule: Q01DX009 (ip), vehicle: saline with Tween-80
[6] = endpoint: mean survival time, dose: 400.0 mg/kg/injection, schedule: Q04DX003 (ip), vehicle: saline with Tween-80
[7] = endpoint: mean survival time, dose: 50.0 mg/kg/injection, schedule: Q01DX009 (ip), vehicle: saline with Tween-80
[8] = endpoint: mean survival time, dose: 25.0 mg/kg/injection, schedule: Q01DX009 (ip), vehicle: saline with Tween-80

Measured: T/C

CC(SC(C)c1ccccc1)c1ccccc1 (configuration not stated)
inactive: [1] 98 % of control | [2] 90 % of control | [3] 98 % of control | [4] 93 % of control | [5] 102 % of control | [6] 90 % of control

Cc1ccc2c(c1)C1(C)OC(C=CC1=O)O2 (configuration not stated)
inactive: endpoint: median survival time, dose: 3.12 mg/kg/injection, schedule: Q01DX005 (ip), vehicle: Klucel (hydroxypropylcellulose) (HPC) 106 % of control | endpoint: median survival time, dose: 6.25 mg/kg/injection, schedule: Q01DX005 (ip), vehicle: Klucel (hydroxypropylcellulose) (HPC) 101 % of control | endpoint: median survival time, dose: 12.5 mg/kg/injection, schedule: Q01DX005 (ip), vehicle: Klucel (hydroxypropylcellulose) (HPC) 105 % of control | endpoint: median survival time, dose: 25.0 mg/kg/injection, schedule: Q01DX005 (ip), vehicle: Klucel (hydroxypropylcellulose) (HPC) 101 % of control and 105 % of control | endpoint: median survival time, dose: 50.0 mg/kg/injection, schedule: Q01DX005 (ip), vehicle: Klucel (hydroxypropylcellulose) (HPC) 103 % of control

O.O.O=C(O)CC(=O)O.[NH-]C1CCCCC1[NH-].[Pt+2] (configuration not stated)
inactive: endpoint: mean survival time, dose: 12.5 mg/kg/injection, schedule: Q04DX003 (ip), vehicle: dextrose 98 % of control

C=C1C(=O)O[C@@H]2C[C@@H](C)[C@@H]3C=CC(=O)[C@@]3(C)[C@@H](O)[C@H]12
inactive: endpoint: mean survival time, dose: 8.0 mg/kg/injection, schedule: Q04DX003 (ip), vehicle: saline with Tween-80 117 % of control

NN1C(=O)c2c(Cl)c(Cl)c(Cl)c(Cl)c2C1=O
inactive: [1] 97 % of control | [2] 95 % of control | [3] 98 % of control | [4] 97 % of control | [5] 93 % of control | [6] 92 % of control

S=P(Cc1ccccc1)(c1ccccc1)c1ccccc1
inactive: [7] 89 % of control | [1] 90 % of control | [2] 88 % of control | [4] 86 % of control

NC1=NN(c2ccccc2)CC1
inactive: endpoint: mean survival time, dose: 5.0 mg/kg/injection, schedule: Q01DX009 (ip), vehicle: saline with Tween-80 96 % of control | endpoint: mean survival time, dose: 5.0 mg/kg/injection, schedule: Q04DX003 (ip), vehicle: saline with Tween-80 94 % of control | endpoint: mean survival time, dose: 10.0 mg/kg/injection, schedule: Q01DX009 (ip), vehicle: saline with Tween-80 96 % of control | endpoint: mean survival time, dose: 10.0 mg/kg/injection, schedule: Q04DX003 (ip), vehicle: saline with Tween-80 91 % of control | endpoint: mean survival time, dose: 20.0 mg/kg/injection, schedule: Q01DX009 (ip), vehicle: saline with Tween-80 106 % of control | endpoint: mean survival time, dose: 20.0 mg/kg/injection, schedule: Q04DX003 (ip), vehicle: saline with Tween-80 86 % of control

Cc1ccc(S(=O)(=O)N=S2CCCC2)cc1
inactive: endpoint: mean survival time, dose: 100.0 mg/kg/injection, schedule: Q04DX003 (ip), vehicle: other 102 % of control | endpoint: mean survival time, dose: 200.0 mg/kg/injection, schedule: Q04DX003 (ip), vehicle: other 106 % of control | endpoint: mean survival time, dose: 400.0 mg/kg/injection, schedule: Q04DX003 (ip), vehicle: other 104 % of control

Nc1c[n+]([O-])cc2ccccc12
inactive: [2] 94 % of control | [4] 94 % of control

O=NN1CC2CCC1CC2
inactive: endpoint: mean survival time, dose: 5.0 mg/kg/injection, schedule: Q01DX001 (ip), vehicle: saline with Tween-80 98 % of control | endpoint: mean survival time, dose: 10.0 mg/kg/injection, schedule: Q01DX001 (ip), vehicle: saline with Tween-80 101 % of control

CCOC(=O)c1cc(=O)[nH]c2ccc(OC)cc12
inactive: [1] 98 % of control | [3] 104 % of control | [5] 104 % of control

CCCCOc1ccc(NC(=O)CCl)cc1
inactive: [8] 96 % of control | endpoint: mean survival time, dose: 25.0 mg/kg/injection, schedule: Q04DX003 (ip), vehicle: saline 95 % of control | [7] 96 % of control | endpoint: mean survival time, dose: 50.0 mg/kg/injection, schedule: Q04DX003 (ip), vehicle: saline 101 % of control | endpoint: mean survival time, dose: 100.0 mg/kg/injection, schedule: Q04DX003 (ip), vehicle: saline 94 % of control

O=C(N/N=C(/C(=N/NC(=O)c1ccccc1)c1ccccc1)c1ccccc1)c1ccccc1
inactive: [4] 91 % of control | [6] 87 % of control

C1CCC2C(C1)NC1CCCCC12 (configuration not stated)
inactive: endpoint: mean survival time, dose: 25.0 mg/kg/injection, schedule: Q01DX009 (ip), vehicle: saline 89 % of control | endpoint: mean survival time, dose: 50.0 mg/kg/injection, schedule: Q01DX009 (ip), vehicle: saline 89 % of control

Cc1cccc(C)c1C1=NCCN1
inactive: endpoint: mean survival time, dose: 12.5 mg/kg/injection, schedule: Q01DX009 (ip), vehicle: saline with Tween-80 98 % of control | [8] 98 % of control | [7] 98 % of control

N#C[Se]C[Se]C#N
inactive: endpoint: mean survival time, dose: 6.25 mg/kg/injection, schedule: Q01DX001 (ip), vehicle: saline with Tween-80 104 % of control

CN(C)c1ccc(/C=C/c2cc[n+](C)cc2)cc1
inactive: endpoint: mean survival time, dose: 4.0 mg/kg/injection, schedule: Q01DX009 (ip), vehicle: saline 97 % of control | endpoint: mean survival time, dose: 8.0 mg/kg/injection, schedule: Q01DX009 (ip), vehicle: saline 94 % of control

NC(=S)N/N=C/c1ccc(F)cn1
inactive: endpoint: mean survival time, dose: 11.0 mg/kg/injection, schedule: Q04DX003 (ip), vehicle: saline with Tween-80 105 % of control | endpoint: mean survival time, dose: 12.5 mg/kg/injection, schedule: Q04DX002 (ip), vehicle: saline with Tween-80 118 % of control | endpoint: mean survival time, dose: 16.5 mg/kg/injection, schedule: Q04DX003 (ip), vehicle: saline with Tween-80 110 % of control | endpoint: mean survival time, dose: 25.0 mg/kg/injection, schedule: Q04DX003 (ip), vehicle: saline with Tween-80 110 % of control

CCOC(=O)Nc1cc(Nc2ccccc2)c(N)c(N)n1
inactive: endpoint: mean survival time, dose: 100.0 mg/kg/injection, schedule: Q01DX001 (ip), vehicle: saline 88 % of control | endpoint: mean survival time, dose: 200.0 mg/kg/injection, schedule: Q01DX001 (ip), vehicle: saline 94 % of control

O=C(O)c1cn(C2OC(CO)C(O)C2O)c2nc[nH]c(=O)c12 (configuration not stated)
inactive: endpoint: median survival time, dose: 8.63 mg/kg/injection, schedule: Q01DX005 (ip), vehicle: saline with Tween-80 103 % of control | endpoint: median survival time, dose: 17.25 mg/kg/injection, schedule: Q01DX005 (ip), vehicle: saline with Tween-80 101 % of control | endpoint: median survival time, dose: 34.5 mg/kg/injection, schedule: Q01DX005 (ip), vehicle: saline with Tween-80 108 % of control | endpoint: median survival time, dose: 69.0 mg/kg/injection, schedule: Q01DX005 (ip), vehicle: saline with Tween-80 104 % of control | endpoint: median survival time, dose: 138.0 mg/kg/injection, schedule: Q01DX005 (ip), vehicle: saline with Tween-80 110 % of control

CCC1(O)C(=O)OCc2c1cc1n(c2=O)Cc2cc3ccc(C(=O)OC)cc3nc2-1 (configuration not stated)
inactive: endpoint: median survival time, dose: 10.0 mg/kg/injection, schedule: Q04DX002 (ip), vehicle: saline with Tween-80 107 % of control | endpoint: median survival time, dose: 20.0 mg/kg/injection, schedule: Q04DX002 (ip), vehicle: saline with Tween-80 100 % of control | endpoint: median survival time, dose: 40.0 mg/kg/injection, schedule: Q04DX002 (ip), vehicle: saline with Tween-80 106 % of control | endpoint: median survival time, dose: 80.0 mg/kg/injection, schedule: Q04DX002 (ip), vehicle: saline with Tween-80 107 % of control

CCOP(=S)(N1CC1)N1CC1
inactive: endpoint: mean survival time, dose: 100.0 mg/kg/injection, schedule: Q01DX009 (ip), vehicle: other 94 % of control | endpoint: mean survival time, dose: 200.0 mg/kg/injection, schedule: Q01DX009 (ip), vehicle: other 100 % of control | endpoint: mean survival time, dose: 400.0 mg/kg/injection, schedule: Q01DX009 (ip), vehicle: other 90 % of control
